# Measurements reported in patent publication US11542240B2, “STK19 inhibitors for treatment of cancer” (TRUSTEES OF BOSTON UNIVERSITY, priority 2018, dated 2023).
# Read-outs that look alike come from different tables or passages of the source.
# Experiments:
# Assay in all cases: biochemical
# Type in all cases: binding
# [1] = biological target: panel of 468 diverse kinases (Homo sapiens, UniProt O00750); conditions: PIK3C2B; 1000 nM; read-out: Percent Control
# [2] = biological target: panel of 468 diverse kinases (Homo sapiens, UniProt O14936); conditions: CASK; 1000 nM; read-out: Percent Control
# [3] = biological target: panel of 468 diverse kinases (Homo sapiens, UniProt O15197); conditions: EPHB6; 1000 nM; read-out: Percent Control
# Sequence of panel of 468 diverse kinases (Homo sapiens, UniProt O15197) (O15197 32-1021 limits assumed): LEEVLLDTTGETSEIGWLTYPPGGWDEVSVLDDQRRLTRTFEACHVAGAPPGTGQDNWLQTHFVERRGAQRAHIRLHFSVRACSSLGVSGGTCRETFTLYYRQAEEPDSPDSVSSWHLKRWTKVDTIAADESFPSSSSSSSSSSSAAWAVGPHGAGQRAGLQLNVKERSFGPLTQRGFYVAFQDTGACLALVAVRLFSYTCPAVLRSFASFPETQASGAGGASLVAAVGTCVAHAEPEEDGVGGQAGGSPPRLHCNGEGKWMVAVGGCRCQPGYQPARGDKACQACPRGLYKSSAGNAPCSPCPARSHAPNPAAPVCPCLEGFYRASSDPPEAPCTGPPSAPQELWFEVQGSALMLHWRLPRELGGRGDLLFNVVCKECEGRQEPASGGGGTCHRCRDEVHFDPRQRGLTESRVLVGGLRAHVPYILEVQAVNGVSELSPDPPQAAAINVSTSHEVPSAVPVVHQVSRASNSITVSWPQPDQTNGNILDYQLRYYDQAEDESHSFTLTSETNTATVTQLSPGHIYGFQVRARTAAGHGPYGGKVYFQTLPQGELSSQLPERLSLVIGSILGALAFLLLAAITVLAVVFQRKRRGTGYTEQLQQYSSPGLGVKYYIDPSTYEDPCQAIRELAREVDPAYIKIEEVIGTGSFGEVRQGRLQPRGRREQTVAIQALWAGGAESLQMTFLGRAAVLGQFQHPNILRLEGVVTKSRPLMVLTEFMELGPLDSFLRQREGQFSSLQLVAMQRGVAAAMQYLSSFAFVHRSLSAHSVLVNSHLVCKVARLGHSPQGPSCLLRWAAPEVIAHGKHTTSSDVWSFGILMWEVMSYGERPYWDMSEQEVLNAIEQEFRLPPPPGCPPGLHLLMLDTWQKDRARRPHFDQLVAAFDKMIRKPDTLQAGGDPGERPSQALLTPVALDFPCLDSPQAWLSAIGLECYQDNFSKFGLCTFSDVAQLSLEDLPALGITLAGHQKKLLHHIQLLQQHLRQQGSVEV
# [4] = biological target: panel of 468 diverse kinases (Homo sapiens, UniProt O43283); conditions: LZK; 1000 nM; read-out: Percent Control
# [5] = biological target: panel of 468 diverse kinases (Homo sapiens, UniProt O94804); conditions: LOK; 1000 nM; read-out: Percent Control
# [6] = biological target: panel of 468 diverse kinases (Homo sapiens, UniProt O96017); conditions: CHEK2; 1000 nM; read-out: Percent Control
# [7] = biological target: panel of 468 diverse kinases (Homo sapiens, UniProt P00519, H396P); conditions: 1000 nM, read-out: Percent Control
# [8] = biological target: panel of 468 diverse kinases (Homo sapiens, UniProt P07332); conditions: FES; 1000 nM; read-out: Percent Control
# [9] = biological target: panel of 468 diverse kinases (Homo sapiens, UniProt P10721, D816H); conditions: KIT(D816H); 1000 nM; read-out: Percent Control
# Sequence of panel of 468 diverse kinases (Homo sapiens, UniProt P10721, D816H) (P10721 26-976 D816H limits assumed): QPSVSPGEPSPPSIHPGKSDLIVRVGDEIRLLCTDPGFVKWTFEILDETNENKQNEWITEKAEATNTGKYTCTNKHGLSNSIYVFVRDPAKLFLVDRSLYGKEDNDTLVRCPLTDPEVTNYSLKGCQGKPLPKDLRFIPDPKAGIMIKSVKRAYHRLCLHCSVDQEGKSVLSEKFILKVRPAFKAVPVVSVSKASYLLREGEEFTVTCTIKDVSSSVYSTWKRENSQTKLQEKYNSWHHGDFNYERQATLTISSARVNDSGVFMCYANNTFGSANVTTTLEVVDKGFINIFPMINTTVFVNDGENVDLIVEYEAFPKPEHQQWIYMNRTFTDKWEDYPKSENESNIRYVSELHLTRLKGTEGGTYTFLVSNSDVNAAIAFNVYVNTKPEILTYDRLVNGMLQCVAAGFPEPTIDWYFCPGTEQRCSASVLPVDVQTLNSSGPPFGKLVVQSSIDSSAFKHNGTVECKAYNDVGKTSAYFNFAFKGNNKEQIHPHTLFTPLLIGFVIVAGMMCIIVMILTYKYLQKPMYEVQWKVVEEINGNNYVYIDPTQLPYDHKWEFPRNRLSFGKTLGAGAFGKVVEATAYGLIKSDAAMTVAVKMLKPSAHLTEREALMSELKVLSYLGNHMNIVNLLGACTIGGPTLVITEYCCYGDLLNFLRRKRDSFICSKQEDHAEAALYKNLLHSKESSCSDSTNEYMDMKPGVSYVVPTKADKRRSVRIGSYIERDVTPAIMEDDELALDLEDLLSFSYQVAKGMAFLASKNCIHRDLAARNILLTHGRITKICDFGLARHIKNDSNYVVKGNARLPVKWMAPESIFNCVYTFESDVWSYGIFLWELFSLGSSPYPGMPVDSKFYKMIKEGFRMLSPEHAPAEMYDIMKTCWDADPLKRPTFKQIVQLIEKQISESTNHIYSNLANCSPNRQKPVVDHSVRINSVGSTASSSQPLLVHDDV
# [10] = biological target: panel of 468 diverse kinases (Homo sapiens, UniProt P16234); conditions: PDGFRA; 1000 nM; read-out: Percent Control
# Sequence of panel of 468 diverse kinases (Homo sapiens, UniProt P16234) (P16234 24-1089 limits assumed): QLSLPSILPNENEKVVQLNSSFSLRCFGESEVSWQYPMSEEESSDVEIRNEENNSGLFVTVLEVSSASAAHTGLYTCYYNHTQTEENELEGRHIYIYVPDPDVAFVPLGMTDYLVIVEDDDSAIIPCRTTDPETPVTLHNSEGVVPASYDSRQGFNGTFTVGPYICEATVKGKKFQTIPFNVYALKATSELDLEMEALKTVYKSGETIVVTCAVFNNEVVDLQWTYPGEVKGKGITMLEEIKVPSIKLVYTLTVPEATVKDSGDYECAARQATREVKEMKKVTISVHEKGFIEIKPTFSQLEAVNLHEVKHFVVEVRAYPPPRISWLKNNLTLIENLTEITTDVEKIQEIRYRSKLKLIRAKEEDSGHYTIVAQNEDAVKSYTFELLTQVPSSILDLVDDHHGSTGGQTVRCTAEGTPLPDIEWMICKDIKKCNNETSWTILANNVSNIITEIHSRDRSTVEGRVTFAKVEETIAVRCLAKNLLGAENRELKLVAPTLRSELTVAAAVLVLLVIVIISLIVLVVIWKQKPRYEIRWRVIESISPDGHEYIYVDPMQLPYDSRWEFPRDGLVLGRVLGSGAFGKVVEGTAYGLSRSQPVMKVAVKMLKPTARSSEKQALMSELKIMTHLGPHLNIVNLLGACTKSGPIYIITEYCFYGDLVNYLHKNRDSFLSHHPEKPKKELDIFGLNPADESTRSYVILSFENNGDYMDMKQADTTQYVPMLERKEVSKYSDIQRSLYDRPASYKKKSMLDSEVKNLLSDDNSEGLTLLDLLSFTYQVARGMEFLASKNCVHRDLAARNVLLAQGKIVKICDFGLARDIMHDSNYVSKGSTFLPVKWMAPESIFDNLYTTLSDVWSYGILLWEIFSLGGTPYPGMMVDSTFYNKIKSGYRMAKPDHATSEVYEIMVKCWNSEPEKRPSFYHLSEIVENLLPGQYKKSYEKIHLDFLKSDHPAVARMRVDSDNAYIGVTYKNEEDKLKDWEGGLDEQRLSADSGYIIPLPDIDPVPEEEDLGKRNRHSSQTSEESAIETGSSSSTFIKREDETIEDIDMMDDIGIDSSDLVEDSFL
# [11] = biological target: panel of 468 diverse kinases (Homo sapiens, UniProt P19784); conditions: CSNK2A2; 1000 nM; read-out: Percent Control
# [12] = biological target: panel of 468 diverse kinases (Homo sapiens, UniProt P25098); conditions: GRK2; 1000 nM; read-out: Percent Control
# [13] = biological target: panel of 468 diverse kinases (Homo sapiens, UniProt P35626); conditions: GRK3; 1000 nM; read-out: Percent Control
# [14] = biological target: panel of 468 diverse kinases (Homo sapiens, UniProt P36894); conditions: BMPRIV; 1000 nM; read-out: Percent Control
# Sequence of panel of 468 diverse kinases (Homo sapiens, UniProt P36894) (P36894 24-532 limits assumed): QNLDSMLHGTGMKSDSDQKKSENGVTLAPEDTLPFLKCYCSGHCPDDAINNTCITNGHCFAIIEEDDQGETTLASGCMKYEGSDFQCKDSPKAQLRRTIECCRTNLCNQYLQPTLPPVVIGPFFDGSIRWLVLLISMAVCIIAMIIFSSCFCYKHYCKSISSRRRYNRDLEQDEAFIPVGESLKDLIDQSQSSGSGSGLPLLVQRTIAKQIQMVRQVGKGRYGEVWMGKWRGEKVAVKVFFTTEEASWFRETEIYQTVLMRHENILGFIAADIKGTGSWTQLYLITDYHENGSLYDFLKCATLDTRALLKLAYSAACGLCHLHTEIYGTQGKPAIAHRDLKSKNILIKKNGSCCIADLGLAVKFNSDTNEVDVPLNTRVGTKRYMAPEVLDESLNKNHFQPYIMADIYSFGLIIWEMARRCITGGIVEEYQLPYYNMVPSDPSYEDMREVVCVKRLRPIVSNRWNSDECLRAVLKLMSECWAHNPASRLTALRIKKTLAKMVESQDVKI
# [15] = biological target: panel of 468 diverse kinases (Homo sapiens, UniProt P51817); conditions: PRKX; 1000 nM; read-out: Percent Control
# [16] = biological target: panel of 468 diverse kinases (Homo sapiens, UniProt P80192); conditions: MLK1; 1000 nM; read-out: Percent Control
# [17] = biological target: panel of 468 diverse kinases (Homo sapiens, UniProt Q13546); conditions: RIPK1; 1000 nM; read-out: Percent Control
# [18] = biological target: panel of 468 diverse kinases (Homo sapiens, UniProt Q13555); conditions: CAMK2G; 1000 nM; read-out: Percent Control
# [19] = biological target: panel of 468 diverse kinases (Homo sapiens, UniProt Q15349); conditions: 1000 nM, read-out: Percent Control
# [20] = biological target: panel of 468 diverse kinases (Homo sapiens, UniProt Q16816); conditions: PHKG1; 1000 nM; read-out: Percent Control
# [21] = biological target: panel of 468 diverse kinases (Homo sapiens, UniProt Q5VT25); conditions: MRCKA; 1000 nM; read-out: Percent Control
# [22] = biological target: panel of 468 diverse kinases (Homo sapiens, UniProt Q6PHR2); conditions: ULK3; 1000 nM; read-out: Percent Control
# [23] = biological target: panel of 468 diverse kinases (Homo sapiens, UniProt Q96L34); conditions: MARK4; 1000 nM; read-out: Percent Control
# [24] = biological target: panel of 468 diverse kinases (Homo sapiens, UniProt Q9BXA7); conditions: TSSK1B; 1000 nM; read-out: Percent Control
# [25] = biological target: panel of 468 diverse kinases (Homo sapiens, UniProt Q9H093); conditions: SNARK; 1000 nM; read-out: Percent Control
# [26] = biological target: panel of 468 diverse kinases (Homo sapiens, UniProt Q9H1R3); conditions: MYLK2; 1000 nM; read-out: Percent Control
# Sequence of panel of 468 diverse kinases (Homo sapiens, UniProt Q9H1R3) (Q9H1R3 2-596 limits assumed): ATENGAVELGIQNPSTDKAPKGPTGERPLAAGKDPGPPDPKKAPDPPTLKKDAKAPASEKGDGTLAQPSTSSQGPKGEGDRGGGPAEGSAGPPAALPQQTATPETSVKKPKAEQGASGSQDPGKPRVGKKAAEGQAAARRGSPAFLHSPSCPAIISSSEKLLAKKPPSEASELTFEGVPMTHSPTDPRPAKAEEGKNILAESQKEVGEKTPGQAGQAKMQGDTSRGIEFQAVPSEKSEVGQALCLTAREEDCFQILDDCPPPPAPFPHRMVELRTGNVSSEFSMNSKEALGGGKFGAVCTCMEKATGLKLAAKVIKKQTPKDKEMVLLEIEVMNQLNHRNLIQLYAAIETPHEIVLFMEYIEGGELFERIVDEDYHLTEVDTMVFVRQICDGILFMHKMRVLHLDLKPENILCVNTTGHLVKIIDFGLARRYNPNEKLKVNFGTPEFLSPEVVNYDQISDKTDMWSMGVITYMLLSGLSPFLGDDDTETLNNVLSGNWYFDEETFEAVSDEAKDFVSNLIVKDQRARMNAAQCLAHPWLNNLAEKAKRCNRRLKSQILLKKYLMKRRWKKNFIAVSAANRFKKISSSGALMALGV
# [27] = biological target: panel of 468 diverse kinases (Homo sapiens, UniProt Q9H2G2); conditions: SLK; 1000 nM; read-out: Percent Control
# [28] = biological target: panel of 468 diverse kinases (Homo sapiens, UniProt Q9NQU5); conditions: PAK6; 1000 nM; read-out: Percent Control
# [29] = biological target: panel of 468 diverse kinases (Homo sapiens, UniProt Q9P1W9); conditions: PIM2; 1000 nM; read-out: Percent Control
# [30] = biological target: panel of 468 diverse kinases (Homo sapiens, UniProt Q9Y2H9); conditions: MAST1; 1000 nM; read-out: Percent Control
# [31] = biological target: panel of 468 diverse kinases (Homo sapiens, UniProt Q9Y3S1); conditions: WNK2; 1000 nM; read-out: Percent Control
smiles,measurement,setting,value
COc1cc2nc(NC3CC3)nc(NC3CCN(C(C)C)CC3)c2cc1OC [Formula IV],remaining activity at 1 µM,[1],87%
same,remaining activity at 1 µM,[2],60%
same,remaining activity at 1 µM,[3],81%
same,remaining activity at 1 µM,[4],45%
same,remaining activity at 1 µM,[5],90%
same,remaining activity at 1 µM,[6],100%
same,remaining activity at 1 µM,[7]; ABL1 (H396P)-nonphosphorylated,69%
same,remaining activity at 1 µM,[7]; ABL1(H396P)-phosphorylated,68%
same,remaining activity at 1 µM,[8],100%
same,remaining activity at 1 µM,[9],78%
same,remaining activity at 1 µM,[10],75%
same,remaining activity at 1 µM,[11],63%
same,remaining activity at 1 µM,[12],83%
same,remaining activity at 1 µM,[13],53%
same,remaining activity at 1 µM,[14],100%
same,remaining activity at 1 µM,[15],100%
same,remaining activity at 1 µM,[16],98%
same,remaining activity at 1 µM,[17],87%
same,remaining activity at 1 µM,[18],100%
same,remaining activity at 1 µM,[19]; RSK3(Kin.Dom.1-N-terminal),93%
same,remaining activity at 1 µM,[19]; RSK3(Kin.Dom.2-C-terminal),81%
same,remaining activity at 1 µM,[20],90%
same,remaining activity at 1 µM,[21],100%
same,remaining activity at 1 µM,[22],71%
same,remaining activity at 1 µM,[23],95%
same,remaining activity at 1 µM,[24],85%
same,remaining activity at 1 µM,[25],57%
same,remaining activity at 1 µM,[26],96%
same,remaining activity at 1 µM,[27],100%
same,remaining activity at 1 µM,[28],91%
same,remaining activity at 1 µM,[29],91%
same,remaining activity at 1 µM,[30],72%
same,remaining activity at 1 µM,[31],58%
